Data published in patent US20230263770A1, “THERAPY OF POST-OPERATIVE NAUSEA AND VOMITING” (ACACIA PHARMA LTD, priority 2020, published 2023).
“Also recorded” adds a separate entry of the source.

Experiments:
[1] = test system: adult surgical patients at moderate-to-high risk of suffering PONV; test: Phase II dose-ranging trial, IV amisulpride as PONV prophylaxis; type: in vivo, human; conditions: for incidence of PONV: prophylaxis
Protocol: In a multi-centre, double-blind, randomised, dose-ranging Phase II trial (conducted by the applicant), amisulpride was given intravenously to adult surgical patients at moderate-to-high risk of suffering PONV (prophylaxis), at doses of 1 mg, 5 mg and 20 mg, with a fourth group receiving placebo.

[2] = test system: adult surgical patients at moderate-to-high risk of suffering PONV; test: Two Phase III placebo-controlled trials, PONV prophylaxis; type: in vivo, human; conditions: 5 mg, 626 evaluable patients, vs 59% placebo, p<0.01
[3] = test system: adult surgical patients at high risk of suffering PONV; test: Phase III trial, amisulpride in combination with a standard anti-emetic, PONV prophylaxis; type: in vivo, human; conditions: 5 mg in combination with a standard anti-emetic, 1147 evaluable patients; vs 53% placebo combination, p<0.001
[4] = test system: patients who had not received prior prophylaxis; test: Clinical trial, treatment of PONV in patients without prior prophylaxis; type: in vivo, human; conditions: doses of 5 mg and 10 mg; no difference between the doses
Protocol: In another clinical trial conducted by the applicant, amisulpride at doses of 5 mg and 10 mg were compared with placebo for the treatment of PONV, in patients who had not received prior prophylaxis.

[5] = test system: patients having a high BMI (≥30); test: Study 1: prophylaxis of PONV in patients with a high BMI (complete response and secondary endpoints); type: in vivo, human; conditions: for CR (PONV) 0-2 hours / CR (PONV) 0-24 hours / CR (emesis) / CR (nausea) / CR (severe nausea): prophylactic therapy, 5 mg
Protocol: (§1) A randomised, double-blind, placebo-controlled study of amisulpride for IV injection as treatment against post-operative nausea and vomiting in patients having a high BMI (≥30) was conducted. The primary aim of the study was to compare the efficacy of 5 mg and 10 mg amisulpride to placebo as treatment or prevention of PONV, in patients with a high BMI.
(§2) The study was performed in adult patients (≥18 years) having a BMI ≥30 who were undergoing elective ambulatory (day-case) or in-patient surgery under general inhalational anaesthesia for an expected duration of at least one hour from induction of anaesthesia to extubation.
(§3) Amisulpride at a dose of 5 mg (prophylaxis) or 10 mg (rescue treatment) or matching placebo was given once by slow IV administration, over about 2 minutes.
(§4) The primary efficacy variable was the absence or presence of PONV during the 24-hour post-operative period, where PONV was defined as the occurrence of one or more emetic episodes (vomiting and/or retching) or the receipt of one or more doses of rescue anti-emetic medication in the 24 hours after wound closure (prophylaxis study) or dosing (treatment study). Absence of PONV by this definition was termed “Complete Response” (CR). A number of secondary variables were evaluated including the occurrence of emesis (vomiting and/or retching).
(§5) A comparison of the incidence of CR in the 0-2 and 0-24 hour periods after surgery between the amisulpride group and the placebo group using Pearson's X2 test with Yates's continuity correction at a one-sided significance level of 2.5%. The primary efficacy analysis population was the modified intent-to-treat (mITT) population.
Secondary efficacy variables assessed by incidence (e.g., emesis) were compared between the groups using Pearson's X2 test.

[6] = test system: patients having a high BMI (≥30); test: Study 1: rescue treatment of PONV in patients with a high BMI; type: in vivo, human; conditions: for CR (PONV), rescue treatment: 10 mg
Protocol: as §1, §2, §3, §4, §5

[7] = test system: patients with BMI ≥35; test: Study 1: treatment-emergent adverse events, prophylaxis in patients with BMI ≥35; type: in vivo, human
Protocol: as §1, §2, §3

[8] = test system: bariatric surgery patients; test: Study 1: complete response in bariatric surgery patients (prophylaxis and rescue treatment); type: in vivo, human
Protocol: (§6) The present invention is based on the results of a Phase III study of amisulpride as prophylaxis against PONV in high-risk patients, conducted by the applicant. The Phase III study results include data from two randomized, double-blind, placebo-controlled, multi-centre Phase III trials of amisulpride, either as a prophylaxis, or rescue treatment for PONV.
as §3, §4

[9] = test system: patients undergoing bariatric surgery; test: Study 1: treatment-emergent adverse events in patients undergoing bariatric surgery; type: in vivo, human; conditions: 5 mg prophylaxis or 10 mg rescue treatment, n = 53
Protocol: as §6, §3

[10] = test system: patients having a high BMI (≥30); test: Study 1: prophylaxis of PONV in patients with a high BMI (complete response and secondary endpoints); type: in vivo, human; conditions: IV 5 mg + another antiemetic
[11] = compared to the (R+)-enantiomer; cited from earlier work
[12] = prophylaxis, IV 5 mg + another antiemetic, BMI ≥35, mITT, P 0.011
[13] = 5 mg prophylaxis, BMI ≥35, n = 149

## CCN1CCCC1CNC(=O)c1cc(S(=O)(=O)CC)c(N)cc1OC (racemic) [Amisulpride, amisulpride]
[1]; 1 mg intravenously, p<0.05 vs placebo (69%)
  incidence of PONV: 48%
[1]; 5 mg intravenously, p<0.01 vs placebo (69%)
  incidence of PONV: 40%
[1]; all amisulpride groups (1 mg, 5 mg and 20 mg)
  incidence of PONV compared to placebo: lower
[2]
  incidence of PONV: 48%
[3]
  incidence of PONV: 42%
[4]
  treating PONV compared to placebo: significantly better than placebo
[5]; 5 mg prophylaxis, BMI ≥35, 42/129 for placebo
  CR (0-24 h), patients with CR/total: 71/149
[5]; 5 mg prophylaxis, BMI ≥35, all secondary endpoints with the exception of emesis
  secondary endpoints compared to placebo (FIGS. 1 and 2): statistically significantly superior to placebo
[5]; 5 mg prophylaxis, overall study population and particularly BMI ≥35 subgroup
  preventing PONV at 24 hours compared to placebo: more effective than placebo
[5]; patients with BMI ≥35 (printed 235), 0-24 h
  absolute risk reduction, amisulpride versus placebo: 15.10
[5]; patients with a BMI <35, 0-24 h
  absolute risk reduction, amisulpride versus placebo: 10.50
[5]; patients with a high BMI (printed 230), compared to RRR of the overall risk of PONV
  relative risk reduction (RRR) of the incidence of PONV: much higher than expected
[5]; BMI ≥30, 251 patients
  CR (PONV) 0-2 hours: 53.0%
  CR (PONV) 0-24 hours: 53.0%
  CR (emesis): 12.6% (251 patients)
  CR (nausea): 55.0% (251 patients)
  CR (severe nausea): 41.8% (251 patients)
[5]; BMI ≥35, 149 patients
  CR (emesis): 14.8% (149 patients)
  CR (nausea): 58.4% (149 patients)
  CR (severe nausea): 45.0% (149 patients)
[5]; BMI ≥35, 149 patients, p = 0.002
  CR (PONV) 0-2 hours: 73.8% (p = 0.002)
[5]; BMI ≥35, 149 patients, p = 0.01
  CR (PONV) 0-24 hours: 47.7% (p = 0.01)
[5]; [12]
  CR (0-24 h): (47.7%)
  CR (0-24 h), patients with CR/total: 71/149
[5]; prophylaxis, patients with a high BMI
  preventing PONV compared to placebo: more effective than placebo
[5]; single IV dose, patients with a high BMI and bariatric surgery population, post-hoc analysis
  safety and efficacy for prevention or treatment of PONV (overall conclusion): safe and effective; also recorded: safe and efficacious
[6]; BMI ≥30, 251 patients
  CR (PONV), rescue treatment: 46.6% (251 patients)
[6]; BMI ≥35, 149 patients
  CR (PONV), rescue treatment: 51.7% (149 patients)
[6]; dose of 10 mg, prior prophylaxis drug given, high (≥30) BMI and/or bariatric surgery patients
  effectiveness as rescue treatment for PONV: particularly effective
[6]; patients with a high BMI
  CR rate, rescue treatment compared to placebo: higher
[7]; [13]
  Number of patients with any adverse event: 79 n
  Patients with any adverse event: (53) %
[7]; high BMI and bariatric subgroups
  incidence of any treatment-emergent adverse events (TEAE) or serious adverse events (SAE), amisulpride vs placebo: No material difference
[8]; bariatric surgery patients, amisulpride prophylaxis or rescue treatment
  complete response rate (after 24 hours) compared to placebo: higher
[8]; bariatric surgery, amisulpride prophylaxis (5 mg), vs 7.3% placebo, P=0.16
  complete response rate at 24 hours: 18.2%
[8]; bariatric surgery, amisulpride rescue treatment (10 mg), vs 9.1% placebo, P=0.17
  complete response rate at 24 hours: 25.0%
[8]; combined prophylaxis and rescue treatment bariatric subgroup, placebo 5/63
  complete response at 24 hours, patients/total: 11/53
[8]; combined prophylaxis and rescue treatment bariatric subgroup, placebo 7.9%
  complete response rate at 24 hours: 20.8%
[8]; human, in vivo
  effectiveness for prophylaxis and rescue treatment of PONV in bariatric surgery patients vs other surgery types: as effective
[9]
  Number of patients with any adverse event: 30 n
  Patients with any adverse event: (57) %
[10]; BMI <35, mITT, P 0.002
  CR (0-24 h): (61.2%)
  CR (0-24 h), patients with CR/total: 259/423
[10]; all patients, mITT, P <0.001
  CR (0-24 h): (57.7%)
  CR (0-24 h), patients with CR/total: 330/572

## CCN1CCCC1CNC(=O)c1cc(S(=O)(=O)CC)c(N)cc1OC (single isomer, unassigned) [(S−)-enantiomer, (S−)-amisulpride]
[11]
  share of the therapeutic activity of amisulpride: almost all of the therapeutic activity
